# Where two headings read alike, the source gives them in different places.
# Columns and labels:
# KCNQ2/3 channels = KCNQ2/3 channels (Homo sapiens, UniProt O43525+O43526); test: High-throughput determination of Rb+ efflux by atomic absorption spectrometry; type: cell-based
# Source text: The determination technique of Rb^+ efflux by AAS is safer and faster in high-throughput screening of potassium channel regulators, and has the characteristics of directly reflecting the activity of ion channels and the regulatory role of regulators. Rb has a similar atomic size to K, and the potassium channel is permeable to Rb^+, the opening or closing of the potassium channel can be determined by measuring the concentration of Rb^+ efflux. Rb has a specific atomic absorption at 780 nm and the Rb^+ concentration can be measured by AAS. Therefore, AAS can be used to screen potassium channel openers or shutters by the high-throughput determination technique for measuring Rb^+ efflux.
# Chinese hamster ovary (CHO) cells with stable KCNQ2/3 channels in logarithmic growth phase are inoculated on a 96-well plate at a density of 2×10^4 cells/well. Three wells are provided for each concentration. Solvent control wells having the corresponding concentrations are arranged. After adherent growth overnight, the culture medium is discarded, and 200 μl of a loading buffer containing RbCL is added, and culturing is performed at 37° C. and under 5% CO2 for 3 h. The loading buffer is then discarded and washing is performed 3 times with a wash buffer. To screen the channel opener, the compound to be tested is diluted in a depolarizing buffer and 200 μl of the above solution is added into the cells and reacted for 10 min. After incubation for 10 min, 200 μl of a supernatant is carefully transferred into another 96-well plate. Rb^+ atomic absorption at 780 nm is determined by an ICR8000 atomic absorption spectrometer. The relative efflux is calculated according to the formula Fsupern=(Rb_supern/cpd/Rb_supern/d)*100.
# KCNQ2/3 (Kv7.2/7.3) = KCNQ2/3 (Kv7.2/7.3) (Homo sapiens, UniProt O43525+O43526); test: Electrophysiological patch clamp determination, KCNQ2/3; type: cell-based; conditions: whole-cell patch clamp, CHO cells; read-out: EC50 value, activation of KCNQ2/3 (Kv7.2/7.3)
# Protocol: (§1) CHO cells culture: CHO cells with stable KCNQ channels are cultured in a DMEM culture solution containing 10% fetal bovine serum, 100 U/ml penicillin and streptomycin, and then digested and passaged by pancreatin. The cells are placed on a 12 mm round cover glass and cultured in a 24-well plate.
# (§2) Cell membrane current record by patch clamp technique: HEKA-EPC10 is used as a patch clamp amplifier. Amphotericin B (final concentration of 0.1-0.2 mg/ml) is used in the electrode to record the perforation patch clamp. After polishing, the microelectrode is filled with an electrode inner fluid, and the resistance value is controlled to be 2-4 MΩ. The electrode inner fluid used for recording CHO cells is (mM): KCl 160, HEPES 5, MgCl2 3, CaCl2 1 and EGTA 3, and the pH is adjusted to 7.4 with KOH. The components of the extracellular fluid are (mM): NaCl 160, KCl 2.5, HEPES 10, glucose 8, MgCl2 1 and CaCl2 5. After forming a giant resistance seal between the microelectrode and the cell membrane, the current is recorded under voltage clamping.
# KM mice = test: Pentylenetetrazole (PTZ)-induced epilepsy model; type: in vivo; conditions: PTZ 85 mg/kg s.c.
# Protocol: Experimental conditions: room temperature 25±1° C.
# Experimental animals: KM mice, half male and half female, weighing 18-25 g, 10-12 mice in each group, adapt to the environment for 3 days and eat and drink freely.
# Methods: the day before the experiment, each animal is labeled to ensure that the determination time of each animal after administration is consistent. The experimental animals fast for more than 8 h the night before the experiment. […] After the drugs are absorbed, the model is made by the subcutaneous administration of 85 mg/kg PTZ (administration volume of 0.1 ml/10 g) body weight to the neck and back. After PTZ administration, time is counted and the model is put into the transparent observation box in time to keep the environment quiet. The seizure threshold and the number of non-seizure animals are recorded. […] The seizure threshold and the rate of non-death mice (i.e. protective rate) within 12 h after constructing the mold are compared.
# Kunming mice = test: Maximum electroshock seizure (MES) experimental model; type: in vivo
# Protocol: Methods: Kunming mice, male, 18-22 g, are placed in the experimental environment 3 days before the experiment to make them adapt to the environment, eat and drink freely; the room temperature is 23-25° C.
# The experimental instrument is YLS-9A physiological and pharmacological electronic stimulator: continuous wave output; wave width of 20 ms; gap of 10 ms; wave number of 70; voltage of 60 V; current limit of 3.5 mA.
# Methods: 24 hours before the formal experiment, the mice are screened, the stimulator is set according to the above parameters, the mouse ears are clamped with crocodile clip of the stimulator, and the stimulation is started. The ankylosis of the hind limbs of the mice is taken as a positive index to screen the qualified (positive) mice and eliminate the substandard mice. In the formal experiment, the grouping is randomly performed with 10 mice in each group according to the experimental scheme, and the electrical stimulation is carried out. If no ankylosis is found in the hind limbs, it is effective (positive).
# KCNQ4 (Kv7.4) = KCNQ4 (Kv7.4) (Homo sapiens, UniProt P56696); test: Electrophysiological patch clamp determination, KCNQ4; type: cell-based; conditions: CHO cells
# Protocol: as §1, §2
# [1] = Rb+ efflux by AAS, CHO cells with stable KCNQ2/3 channels, read-out: KCNQ2/3 EC50
# [2] = intraperitoneal 1 mg/kg body weight
# Chain of KCNQ2/3 channels (O43525 whole entry): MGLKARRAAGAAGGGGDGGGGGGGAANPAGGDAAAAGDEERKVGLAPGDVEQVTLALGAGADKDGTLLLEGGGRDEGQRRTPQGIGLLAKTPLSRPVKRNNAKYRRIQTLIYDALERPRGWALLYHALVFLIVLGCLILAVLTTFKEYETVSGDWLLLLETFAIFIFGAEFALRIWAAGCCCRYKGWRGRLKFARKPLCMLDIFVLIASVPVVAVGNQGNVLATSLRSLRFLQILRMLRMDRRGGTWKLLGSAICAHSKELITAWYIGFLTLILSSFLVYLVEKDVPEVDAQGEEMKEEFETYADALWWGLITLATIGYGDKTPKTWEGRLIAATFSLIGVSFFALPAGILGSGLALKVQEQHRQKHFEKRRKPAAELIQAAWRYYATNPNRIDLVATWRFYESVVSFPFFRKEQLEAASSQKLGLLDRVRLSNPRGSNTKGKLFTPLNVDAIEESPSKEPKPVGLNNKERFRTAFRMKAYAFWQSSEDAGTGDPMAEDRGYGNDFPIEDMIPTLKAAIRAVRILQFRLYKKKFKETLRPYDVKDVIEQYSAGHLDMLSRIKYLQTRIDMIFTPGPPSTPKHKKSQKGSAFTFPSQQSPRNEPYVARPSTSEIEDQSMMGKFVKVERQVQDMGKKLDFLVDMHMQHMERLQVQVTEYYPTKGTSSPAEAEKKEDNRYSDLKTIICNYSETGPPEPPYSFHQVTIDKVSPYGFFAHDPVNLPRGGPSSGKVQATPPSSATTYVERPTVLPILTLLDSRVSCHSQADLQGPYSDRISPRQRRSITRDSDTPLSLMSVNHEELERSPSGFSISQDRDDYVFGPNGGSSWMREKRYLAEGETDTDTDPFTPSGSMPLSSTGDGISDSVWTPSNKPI
# Chain of KCNQ2/3 channels (O43526 whole entry): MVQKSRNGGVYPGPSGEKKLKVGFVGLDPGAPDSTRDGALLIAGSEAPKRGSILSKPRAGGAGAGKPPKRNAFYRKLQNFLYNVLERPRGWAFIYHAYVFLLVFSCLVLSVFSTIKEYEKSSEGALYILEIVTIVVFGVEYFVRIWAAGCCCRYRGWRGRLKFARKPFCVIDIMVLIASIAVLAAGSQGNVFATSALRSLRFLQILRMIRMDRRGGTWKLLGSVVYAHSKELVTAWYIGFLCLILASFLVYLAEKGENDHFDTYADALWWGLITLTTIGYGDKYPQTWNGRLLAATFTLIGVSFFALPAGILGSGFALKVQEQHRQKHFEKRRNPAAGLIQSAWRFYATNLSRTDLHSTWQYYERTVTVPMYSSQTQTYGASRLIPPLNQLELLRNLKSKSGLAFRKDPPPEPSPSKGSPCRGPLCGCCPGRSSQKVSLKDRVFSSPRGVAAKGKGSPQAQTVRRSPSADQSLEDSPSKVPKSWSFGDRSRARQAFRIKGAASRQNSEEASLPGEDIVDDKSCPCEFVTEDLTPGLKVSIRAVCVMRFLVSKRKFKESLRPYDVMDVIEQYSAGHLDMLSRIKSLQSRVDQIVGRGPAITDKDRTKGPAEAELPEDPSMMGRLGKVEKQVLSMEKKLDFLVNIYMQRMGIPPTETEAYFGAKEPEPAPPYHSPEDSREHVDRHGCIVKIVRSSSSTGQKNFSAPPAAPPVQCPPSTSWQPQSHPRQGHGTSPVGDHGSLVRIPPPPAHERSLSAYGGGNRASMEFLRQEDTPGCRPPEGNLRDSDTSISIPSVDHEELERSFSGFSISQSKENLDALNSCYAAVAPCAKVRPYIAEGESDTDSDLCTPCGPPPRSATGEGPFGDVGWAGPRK
SMILES,melting point,EC50 (KCNQ2/3 channels; [1]),further results
"Nc1c(NC(=O)CCN2CCCCC2)ccc(NCc2ccc(C(F)(F)F)cc2)c1F [Compound 5, N-(2-amino-3-fluoro-4-(4-trifluoromethylbenzylamino)-phenyl)-3-piperidinyl-1-propionamide]",202.1 to 203.5 °C,750 ± 120 nM,
"Nc1c(NC(=O)CCc2ccco2)ccc(NCc2ccc(C(F)(F)F)cc2)c1F [Compound 6, N-(2-amino-3-fluoro-4-(4-trifluoromethylbenzylamino)-phenyl)-3-furanyl-2-propanamide]",212.2 to 213.5 °C,3580 ± 730 nM,
"Nc1c(NC(=O)CCC2CCCC2)ccc(NCc2ccc(C(F)(F)F)cc2)c1F [Compound 1, N-(2-amino-3-fluoro-4-(4-trifluoromethylbenzylamino)-phenyl)-cyclopentyl propionamide]",,150 ± 40 nM,EC50 (KCNQ2/3 (Kv7.2/7.3)): 380 ± 100 nM; protective rate (non-death mice within 12 h) (KM mice; 3 mg/kg body weight i.p.): 100%; seizure threshold (KM mice; 3 mg/kg body weight i.p.): 867.21 ± 152.51 s; protective rate (non-death mice within 12 h) (KM mice; 5 mg/kg body weight i.p.): 100%; seizure threshold (KM mice; 5 mg/kg body weight i.p.): 1185.96 ± 134.28 s; effective rate (no ankylosis of hind limbs) (Kunming mice; [2]): 100%; opening activity to KCNQ4 (Kv7.4) (KCNQ4 (Kv7.4)): relatively small
"CC(C)(C)CC(=O)Nc1ccc(NCc2ccc(C(F)(F)F)cc2)c(F)c1N [Compound 2, N-(2-amino-3-fluoro-4-(4-trifluoromethylbenzylamino)-phenyl)-3,3-dimethyl Butyramide]",,210 ± 80 nM,effective rate (no ankylosis of hind limbs) (Kunming mice; [2]): 90%
"Nc1c(NC(=O)C2CCCC2)ccc(NCc2ccc(C(F)(F)F)cc2)c1F [Compound 3, N-(2-amino-3-fluoro-4-(4-trifluoromethylbenzylamino)-phenyl)-cyclopentyl Formamide]",222.9 to 223.5 °C,2830 ± 210 nM,
"Nc1c(NC(=O)CC2CCCC2)ccc(NCc2ccc(C(F)(F)F)cc2)c1F [Compound 4, N-(2-amino-3-fluoro-4-(4-trifluoromethylbenzylamino)-phenyl)-cyclopentyl Acetamide]",196.9 to 197.5 °C,580 ± 130 nM,
Nc1c(NC(=O)CCCc2ccccc2)ccc(NCc2ccc(C(F)(F)F)cc2)c1F [Compound 7],198.5 to 199.5 °C,5260 ± 820 nM,
"CCOC(=O)Nc1ccc(NCc2ccc(F)cc2)cc1N [RTG, Retigabine, reference compound]",,,EC50 (KCNQ2/3 channels): 860 ± 180 nM; protective rate (non-death mice within 12 h) (KM mice; 15 mg/kg body weight i.p.): 50%; seizure threshold (KM mice; 15 mg/kg body weight i.p.): 858.17 ± 528.48 s; effective rate (no ankylosis of hind limbs) (Kunming mice; intraperitoneal 10 mg/kg body weight): 80%
